For one assay, the target named is T1, Estrogen receptor (Homo sapiens, UniProt P03372).
T1 sequence (P03372 whole entry): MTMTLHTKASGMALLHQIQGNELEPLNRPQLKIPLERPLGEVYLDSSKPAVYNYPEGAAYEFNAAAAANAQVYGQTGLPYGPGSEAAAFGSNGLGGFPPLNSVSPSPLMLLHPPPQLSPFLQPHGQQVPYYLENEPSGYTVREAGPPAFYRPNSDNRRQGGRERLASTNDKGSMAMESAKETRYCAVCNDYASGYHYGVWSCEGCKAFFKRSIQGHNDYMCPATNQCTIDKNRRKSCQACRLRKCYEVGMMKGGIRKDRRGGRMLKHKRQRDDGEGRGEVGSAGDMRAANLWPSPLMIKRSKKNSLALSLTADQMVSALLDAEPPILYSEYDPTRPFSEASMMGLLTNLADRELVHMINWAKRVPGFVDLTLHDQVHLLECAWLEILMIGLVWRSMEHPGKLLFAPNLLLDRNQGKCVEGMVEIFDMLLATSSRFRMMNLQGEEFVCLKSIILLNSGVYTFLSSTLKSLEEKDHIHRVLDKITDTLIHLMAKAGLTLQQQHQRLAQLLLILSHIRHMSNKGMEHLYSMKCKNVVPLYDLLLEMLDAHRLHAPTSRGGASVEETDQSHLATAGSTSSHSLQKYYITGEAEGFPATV

The target in assay [1] is T2, Muscarinic acetylcholine receptor M2 (Homo sapiens, UniProt P08172).
T2 sequence (P08172 whole entry): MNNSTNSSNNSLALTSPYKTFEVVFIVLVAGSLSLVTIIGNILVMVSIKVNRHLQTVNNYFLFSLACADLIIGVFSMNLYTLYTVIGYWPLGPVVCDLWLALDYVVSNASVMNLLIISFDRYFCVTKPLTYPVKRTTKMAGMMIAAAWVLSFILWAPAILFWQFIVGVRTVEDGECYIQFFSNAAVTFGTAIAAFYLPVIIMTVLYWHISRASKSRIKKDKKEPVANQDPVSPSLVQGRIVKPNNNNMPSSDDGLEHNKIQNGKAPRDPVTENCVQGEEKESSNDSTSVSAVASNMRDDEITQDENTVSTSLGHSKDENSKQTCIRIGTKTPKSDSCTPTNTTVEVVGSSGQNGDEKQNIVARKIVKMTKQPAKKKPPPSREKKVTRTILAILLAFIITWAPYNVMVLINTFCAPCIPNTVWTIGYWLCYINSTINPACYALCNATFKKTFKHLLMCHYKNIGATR

Assay [2] addresses T3, Endothelin receptor type B (Homo sapiens, UniProt P24530).
T3 sequence (P24530 whole entry): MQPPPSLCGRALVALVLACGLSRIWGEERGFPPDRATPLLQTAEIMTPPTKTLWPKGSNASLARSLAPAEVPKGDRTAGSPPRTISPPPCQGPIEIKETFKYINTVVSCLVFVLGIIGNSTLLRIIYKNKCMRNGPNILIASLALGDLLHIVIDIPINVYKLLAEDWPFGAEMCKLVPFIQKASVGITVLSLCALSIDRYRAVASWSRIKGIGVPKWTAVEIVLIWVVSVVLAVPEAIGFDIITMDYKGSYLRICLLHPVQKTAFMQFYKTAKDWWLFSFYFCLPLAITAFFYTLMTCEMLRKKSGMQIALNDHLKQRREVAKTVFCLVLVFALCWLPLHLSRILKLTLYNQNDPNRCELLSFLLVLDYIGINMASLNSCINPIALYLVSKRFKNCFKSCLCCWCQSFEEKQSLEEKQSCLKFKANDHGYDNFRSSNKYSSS

Assay [3] deals with T4, Alpha-1A adrenergic receptor (Homo sapiens, UniProt P35348).
T4 sequence (P35348 whole entry): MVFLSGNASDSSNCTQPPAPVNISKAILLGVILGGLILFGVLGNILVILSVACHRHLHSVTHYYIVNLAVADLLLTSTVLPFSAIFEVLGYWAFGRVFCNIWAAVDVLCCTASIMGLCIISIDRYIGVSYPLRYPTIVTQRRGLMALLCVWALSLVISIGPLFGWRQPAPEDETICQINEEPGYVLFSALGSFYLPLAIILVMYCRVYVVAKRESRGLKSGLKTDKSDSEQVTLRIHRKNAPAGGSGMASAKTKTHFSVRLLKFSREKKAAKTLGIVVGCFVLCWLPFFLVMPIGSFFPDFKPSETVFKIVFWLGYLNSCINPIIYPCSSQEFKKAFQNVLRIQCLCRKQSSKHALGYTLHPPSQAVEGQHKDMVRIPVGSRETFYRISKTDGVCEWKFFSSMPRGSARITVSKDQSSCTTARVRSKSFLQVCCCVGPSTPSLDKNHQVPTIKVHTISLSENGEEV

The target in assay [4] is Neurotensin receptor type 1 (Homo sapiens, UniProt P30989).
Assay [5] addresses T5, Corticotropin-releasing factor receptor 2 (Homo sapiens, UniProt Q13324).
T5 sequence (Q13324 whole entry): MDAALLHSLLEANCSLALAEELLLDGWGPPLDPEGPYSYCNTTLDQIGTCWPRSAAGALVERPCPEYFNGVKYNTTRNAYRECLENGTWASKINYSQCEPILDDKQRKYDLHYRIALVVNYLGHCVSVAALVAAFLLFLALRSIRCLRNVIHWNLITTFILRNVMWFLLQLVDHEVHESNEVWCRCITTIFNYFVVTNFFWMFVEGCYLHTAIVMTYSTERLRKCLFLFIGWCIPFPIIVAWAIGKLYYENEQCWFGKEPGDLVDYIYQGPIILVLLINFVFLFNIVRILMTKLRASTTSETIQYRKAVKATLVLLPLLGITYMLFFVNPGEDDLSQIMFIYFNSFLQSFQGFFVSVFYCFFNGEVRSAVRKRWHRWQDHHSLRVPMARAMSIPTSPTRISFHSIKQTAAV

For the next assay, the target named is T6, B1 bradykinin receptor (Homo sapiens, UniProt P46663).
T6 sequence (P46663 whole entry): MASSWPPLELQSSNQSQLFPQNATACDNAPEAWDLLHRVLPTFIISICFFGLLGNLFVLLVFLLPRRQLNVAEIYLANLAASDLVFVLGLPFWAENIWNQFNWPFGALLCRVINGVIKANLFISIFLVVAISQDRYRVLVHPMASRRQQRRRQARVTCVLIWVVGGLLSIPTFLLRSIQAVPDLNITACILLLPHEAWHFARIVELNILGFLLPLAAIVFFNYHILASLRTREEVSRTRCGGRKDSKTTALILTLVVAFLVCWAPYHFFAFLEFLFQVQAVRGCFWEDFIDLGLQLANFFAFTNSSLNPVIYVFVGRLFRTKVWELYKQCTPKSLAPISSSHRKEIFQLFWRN

Assay [6] has as its target Sodium-dependent noradrenaline transporter (Homo sapiens, UniProt P23975).

As usually defined, the AC50 is the concentration at which the activity in the assay is half-maximal.
Also: assay procedure not described here.

Neurotensin receptor type 1, sequence (P30989 whole entry): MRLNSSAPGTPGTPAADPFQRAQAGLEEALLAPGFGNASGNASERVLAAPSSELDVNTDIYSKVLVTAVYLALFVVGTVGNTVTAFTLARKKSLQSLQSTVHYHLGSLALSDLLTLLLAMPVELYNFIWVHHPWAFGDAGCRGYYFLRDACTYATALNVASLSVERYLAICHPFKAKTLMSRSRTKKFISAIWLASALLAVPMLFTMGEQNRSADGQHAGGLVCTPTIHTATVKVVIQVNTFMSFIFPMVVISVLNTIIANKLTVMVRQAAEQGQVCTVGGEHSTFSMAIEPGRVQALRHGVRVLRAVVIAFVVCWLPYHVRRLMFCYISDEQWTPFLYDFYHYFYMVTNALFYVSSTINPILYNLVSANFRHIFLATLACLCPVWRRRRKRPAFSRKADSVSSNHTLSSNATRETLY
Sodium-dependent noradrenaline transporter, sequence (P23975 whole entry): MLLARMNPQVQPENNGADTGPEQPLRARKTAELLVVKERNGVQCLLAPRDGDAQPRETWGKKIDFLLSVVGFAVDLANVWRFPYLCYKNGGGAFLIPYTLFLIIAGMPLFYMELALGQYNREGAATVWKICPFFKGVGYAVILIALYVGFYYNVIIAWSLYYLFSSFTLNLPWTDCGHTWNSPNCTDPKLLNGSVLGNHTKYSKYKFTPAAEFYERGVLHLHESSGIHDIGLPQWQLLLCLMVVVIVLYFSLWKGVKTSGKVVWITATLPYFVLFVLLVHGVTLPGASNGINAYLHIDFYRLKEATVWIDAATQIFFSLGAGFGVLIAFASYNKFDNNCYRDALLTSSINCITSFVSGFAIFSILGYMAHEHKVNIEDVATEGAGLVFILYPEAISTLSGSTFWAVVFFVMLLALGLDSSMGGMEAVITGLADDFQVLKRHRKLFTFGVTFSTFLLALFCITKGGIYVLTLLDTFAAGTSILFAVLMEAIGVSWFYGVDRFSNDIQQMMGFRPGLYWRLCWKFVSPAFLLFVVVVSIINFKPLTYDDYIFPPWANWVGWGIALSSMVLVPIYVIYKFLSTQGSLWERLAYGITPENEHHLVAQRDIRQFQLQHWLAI

`O=C1C(O)=C([C@H]2CC[C@H](c3ccc(Cl)cc3)CC2)C(=O)c2ccccc21` [ATOVAQUONE] yielded an AC50 at Estrogen receptor above 30 µM. Same read-out and setting: for `COc1ccc(CCNCC(O)COc2cccc(C)c2)cc1OC` (centres undefined) [BEVANTOLOL] the value was above 10 µM. In assay [1], `Clc1ccccc1C(c1ccccc1)(c1ccccc1)n1ccnc1` [CLOTRIMAZOLE] came in with an AC50 above 10 µM. As to `NC(=O)OCC(COC(N)=O)c1ccccc1` [FELBAMATE], at Estrogen receptor, the concentration at half-maximal activity (AC50) is above 10 µM. On the same count and under the same terms, for `Fc1ccc(C(c2ccccc2)(c2ccccc2F)n2ccnc2)cc1` (centres undefined) [FLUTRIMAZOLE] the value was above 30 µM.

Turning to `Cc1c(OCC(F)(F)F)ccnc1C[S+]([O-])c1nc2ccccc2[nH]1` (centres undefined) [LANSOPRAZOLE], the AC50 is above 30 µM in assay [2]; above 10 µM in assay [3]; above 30 µM in assay [4]; above 30 µM in assay [5]; above 30 µM on B1 bradykinin receptor. Consider `CO[C@]12C[C@@H](COC(=O)c3cncc(Br)c3)CN(C)[C@@H]1Cc1cn(C)c3cccc2c13` [NICERGOLINE], for which the activity in assay [6] was half-maximal at 11.1 µM (AC50). On to `CC/C(=C(\c1ccccc1)c1ccc(OCCN(C)C)cc1)c1ccccc1` [TAMOXIFEN], for which the concentration at half-maximal activity (AC50) in assay [1] was above 10 µM. Consider `COc1cccc(C2(O)CCCCC2CN(C)C)c1` (centres undefined) [TRAMADOL], for which the AC50 is above 30 µM in assay [2]; above 10 µM in assay [3]; above 30 µM in assay [4]; above 30 µM in assay [5]; above 30 µM on B1 bradykinin receptor; above 30 µM at Estrogen receptor. Regarding THIMEROSAL, the concentration at half-maximal activity (AC50) in assay [6] is above 30 µM.

Source of the values: ChEMBL document CHEMBL5291721, “A preclinical secondary pharmacology resource illuminates target-adverse drug reaction associations of marketed drugs” (Nat Commun, 2023).
